Assays:
[1] = Stability in liver microsomes (human); format: in vitro ADME; conditions: h (human liver microsomes), 0.5 mg/mL, read-out: MMS Clint
Protocol: (§1) The purpose of this study was to evaluate the phase I metabolic stability of the assay sample in liver microsomes from CD-1 mice, Sprague-Dawley (SD) rats, beagle dogs, cynomolgus monkeys, and human.
(§2) The animal and human liver microsomes used in this assay system were purchased from Xenotech, Corning, or other qualified suppliers.
(§3) Preparation of buffer: 73.21 g of potassium phosphate dibasic trihydrate and 10.78 g of potassium dihydrogen phosphate were dissolved in 4000 mL of ultrapure water. The pH of the solution was adjusted to the range of 7.40 ± 0.10 using 10.0% phosphoric acid or 1.00 M potassium hydroxide. Its final concentration was 100 mM.
(§4) Preparation of working solutions: An assay sample powder was prepared into a 10.0 mM stock solution with DMSO, and then further diluted with a suitable organic solvent. The control compounds testosterone, diclofenac, and propafenone were prepared into 10.0 mM stock solutions using DMSO, and then further diluted with a suitable organic solvent.
(§5) Preparation of liver microsome solution: Microsomes of various species were diluted with 100 mM potassium phosphate buffer to a working solution of 0.56 mg/mL. The final concentration of microsomes in the reaction system was 0.500 mg/mL. Detailed preparation procedures were described in the experimental records.
(§6) Preparation of reduced nicotinamide adenine dinucleotide phosphate (NADPH) solution: An appropriate amount of reduced nicotinamide adenine dinucleotide phosphate was dissolved in magnesium chloride solution, and the mixture was shaken to mix well. The final concentrations in the reaction system were 1.00 mM NADPH and 1.00 mM magnesium chloride, respectively. Detailed preparation procedures were described in the experimental records.
(§7) Preparation of stop solution: The stop solution was prepared using acetonitrile containing internal standards (tolbutamide and labetalol). The prepared stop solution was stored at 2.0 to 8.0 °C in a refrigerator. Detailed preparation procedures were described in the experimental records. […]

[2] = Stability in liver microsomes (dog); format: in vitro ADME, beagle dogs; conditions: d (beagle dog liver microsomes), 0.5 mg/mL, read-out: MMS Clint
Protocol: as §1, §2, §3, §4, §5, §6, §7

SMILES | CLint scaled at 1 µM [1] [mL/min/kg] | CLint scaled at 1 µM [2] [mL/min/kg]
CC(C)(C)CC(=O)Nc1nc2c(F)cc(C#N)cn2c1-c1ccc(OC(F)(F)F)cc1 [Compound 1] | 30 | 16
CC(C)(C)CC(=O)Nc1nc2c(F)cc(C#N)cn2c1C1=CCCC1 [Compound 3] | 19 | < 14
CC(C)(C)CC(=O)Nc1nc2c(F)cc(C#N)cn2c1C12CC(C1)C2 [Compound 5] | < 8.6 | < 13.8

From patent publication EP4786454A1, “HETEROARYL DERIVATIVE AND USE THEREOF” (priority 2023, dated 2025)
